Measurements from publication PMC4019507, “From Arylamine N-Acetyltransferase to Folate-Dependent Acetyl CoA Hydrolase: Impact of Folic Acid on the Activity of (HUMAN)NAT1 and Its Homologue (MOUSE)NAT2” (PLoS ONE, 2014).
Blank lines part the entries; values can stand above or below the compound they belong to.

What was measured:
Format in all cases: biochemical
[1] = biological target: T1, (MOUSE)NAT2, murine arylamine N-acetyltransferase Type 2 (Mus musculus, UniProt P50295); assay: DTNB colorimetric hydrolysis assay
T1 construct: pure recombinant
T1 sequence (P50295 1-290): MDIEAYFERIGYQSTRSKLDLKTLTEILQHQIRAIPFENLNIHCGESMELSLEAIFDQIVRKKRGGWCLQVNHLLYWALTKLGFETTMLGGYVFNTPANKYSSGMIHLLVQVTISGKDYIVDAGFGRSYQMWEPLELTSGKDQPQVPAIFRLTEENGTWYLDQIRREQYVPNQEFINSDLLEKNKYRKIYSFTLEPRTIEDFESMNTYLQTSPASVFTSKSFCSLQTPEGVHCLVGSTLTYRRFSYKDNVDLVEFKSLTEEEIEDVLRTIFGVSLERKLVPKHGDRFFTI

[2] = biological target: T1, (MOUSE)NAT2, murine arylamine N-acetyltransferase Type 2; assay: DTNB colorimetric assay of folate-dependent AcCoA hydrolysis, dose response
Excerpt: DTNB colorimetric assay of folate-dependent AcCoA hydrolysis, dose response on (MOUSE)NAT2, murine arylamine N-acetyltransferase Type 2 | its concentration dependence was characterised (Figure 6C).

[3] = biological target: T1, (MOUSE)NAT2, murine arylamine N-acetyltransferase Type 2; assay: folate concentration dependence of AcCoA hydrolysis (Michaelis-Menten fit); real-time 1H-NMR of turnover
[4] = biological target: T2, (HUMAN)NAT1, human arylamine N-acetyltransferase Type 1 (Homo sapiens, UniProt P18440); assay: folate concentration dependence of AcCoA hydrolysis (Michaelis-Menten fit); HPLC time course
T2 construct: pure recombinant
T2 sequence (P18440 1-290): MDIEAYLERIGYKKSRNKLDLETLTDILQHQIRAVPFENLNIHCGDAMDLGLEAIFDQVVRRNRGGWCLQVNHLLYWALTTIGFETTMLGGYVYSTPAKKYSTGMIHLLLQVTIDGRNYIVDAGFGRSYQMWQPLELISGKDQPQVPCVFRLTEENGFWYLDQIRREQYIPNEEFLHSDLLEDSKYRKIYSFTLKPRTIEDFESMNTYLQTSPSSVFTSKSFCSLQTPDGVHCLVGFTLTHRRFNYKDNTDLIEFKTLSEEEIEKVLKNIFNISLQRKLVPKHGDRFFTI

[5] = biological target: T1, (MOUSE)NAT2, murine arylamine N-acetyltransferase Type 2; assay: real-time 1H-NMR and DTNB assay of hydrolysis to CoA and acetate
[6] = biological target: T2, (HUMAN)NAT1, human arylamine N-acetyltransferase Type 1; assay: HPLC time course of hydrolysis to CoA

specific acetyl-CoA hydrolysis rate [1]: 290 µM/s/mg
SMILES: CCC(=O)SCCNC(=O)CCNC(=O)[C@H](O)C(C)(C)COP(=O)(O)OP(=O)(O)OC[C@H]1O[C@@H](n2cnc3c(N)ncnc32)[C@H](O)[C@@H]1OP(=O)(O)O [n-propionyl CoA]

IC50 [2]: 0.14 µM
SMILES: Cc1cc(C)cc(NC2=C(NS(=O)(=O)c3ccccc3)C(=O)c3ccccc3C2=O)c1 [compound 1, naphthoquinone 1]

Kd [3]: ~71 µM
Kd [4]: ~75 µM
SMILES: Nc1nc2ncc(CNc3ccc(C(=O)N[C@@H](CCC(=O)O)C(=O)O)cc3)nc2c(=O)[nH]1 [folate]

specific rate of hydrolysis to CoA and acetate [5]: 360 µM/s/mg
specific rate of hydrolysis to CoA [6]: 583 µM/s/mg
SMILES: CC(=O)SCCNC(=O)CCNC(=O)[C@H](O)C(C)(C)COP(=O)(O)OP(=O)(O)OC[C@H]1O[C@@H](n2cnc3c(N)ncnc32)[C@H](O)[C@@H]1OP(=O)(O)O [acetyl Coenzyme A]
